For this series, the system named is v1O4 and H9 cells. The experiment in a line: p53 staining of v1O4 and H9 cells. In kind it is cell-based, human. The source says: Variant neoplastic stem cells (v1O4 cells) and normal H9 stem cells were fixed and stained for p53 expression following treatment with selective-activity compounds.
In the case of `OCCN1CCN(CCCN2c3ccccc3Sc3ccc(C(F)(F)F)cc32)CC1` [fluphenazine], the “activation of the p53 stress response (% cells positive for p53)” value (“activation … (% cells positive for p53)” for short) was “little or no activation of the p53 stress response”.

`OCCN1CCN(CCCN2c3ccccc3Sc3ccc(Cl)cc32)CC1` [perphenazine]: the “activation … (% cells positive for p53)” value is reported as “little or no activation of the p53 stress response”.

Turning to `CN1CCN(CCCN2c3ccccc3Sc3ccc(Cl)cc32)CC1` [prochlorperazine], the “activation … (% cells positive for p53)” value is listed as “little or no activation of the p53 stress response”.

In the case of `CN1CCN(CCCN2c3ccccc3Sc3ccc(C(F)(F)F)cc32)CC1` [trifluoperazine], the “activation … (% cells positive for p53)” value is listed as “little or no activation of the p53 stress response”.

On to `CN(C)CCCN1c2ccccc2Sc2ccc(C(F)(F)F)cc21` [triflupromazine], for which the “activation … (% cells positive for p53)” value was “little or no activation of the p53 stress response”.

The values are drawn from patent US9566282B2, “Methods for identifying and validating selective anti-cancer stem cell agents” (MCMASTER UNIVERSITY, priority 2011, dated 2017).
